Source: patent US8906897B2, “Antimicrobial agents based on hemin derivatives” (Obschestvo S Ogranichennoi Otvetstvennostiyu …, priority 2009, dated 2014)
“Also recorded” adds a separate entry of the source.

Legend:
[1] = test system: Bacillus subtilis BKM B-501; test: Antibacterial activity (MIC/MBC), serial dilutions in liquid MH medium; format: cell-based; details: for MIC: 20 h, MH medium
Method: (§1) The antibacterial activity of compounds was determined against Bacillus subtilis BKM B-501, Staphylococcus aureus 209P, Enterococcus faecalis BKM B-871, and Micrococcus luteus BKM Ac-2230 strains (acquired from the All-Russia Collection of Microorganisms at the Institute for Biochemistry and Physiology of Microorganisms, Russian Academy of Sciences). The main parameters characterizing the antibacterial activity are the minimal inhibitory concentration (MIC) and minimal bactericidal concentration (MBC). […] MBC is the least concentration that causes the death of all cells.
(§2) MIC was quantified by inhibiting culture growth in a liquid medium with serial dilutions of compounds using a modified procedure [Amsterdam, D., “Susceptibility Testing of Antimicrobials in Liquid Media,” in Antibiotics in Laboratory Medicine, Ed. by Lorian, V., 4th ed., Baltimore: Williams and Wilkins, 1996, pp. 52-111].
(§3) Bacteria were cultured and tests were carried out on an MH liquid medium (Mueller-Hinton medium: a dry extract of beef broth, 4 g/L; starch, 1.5 g/L; casein hydrolyzate, 17.5 g/L; Sigma-Fluka Catalog No. 70192) at 37° C., 100% humidity, and under stirring. Cultures (4th through 7th receeding post-thawing) in the exponential growth phase were used for tests.
(§4) Therefore, a correction for absorption was applied in estimating the optical density of bacterial suspensions for each compound with account for its concentration in the well.
(§5) The protocol for experimental antibacterial activity determination for tested compounds was as follows. A cryovial with the test strain culture (Bacillus subtilis BKIVI B-501, Staphylococcus aureus 209P, Enterococcus faecalis BKM B-871, or Micrococcus luteus BKIVI Ac-2230) in a medium with 7% DMSO stored in liquid nitrogen, was rapidly defrosted, and 1.5 mL of the fresh MH medium was inoculated with 100 μL of the cell suspension. Cells were grown for one day at 37° C. and stirred on an orbital shaker at 150 rpm. The morphologic features of the strain and the absence of contamination with foreign bacteria were verified by: (a) inoculation on an agarized (15 g/L agar) MH medium and observation of the shape and color of the grown colonies and (b) examination of characteristic morphologic features under a microscope (Mikmed-2, LOMO, Russia) equipped with a 40× objective lens. Further bacteria were cultured in 1 mL of the liquid MH medium at 37° C. under stirring. The cells were reseeded every day. Cell cultures were used in tests starting with 3rd reseeding and ending with 6th one.
(§6) For testing, 5 μL of a bacterial suspension in the stationary growth phase was transferred to 1 mL of a sterile MH medium and incubated until the exponential growth phase was attained (3 to 5 h, 37° C., stirring at 150 rpm). To estimate the microorganisms concentration, the optical density (A) of the resulting bacterial culture was measured at a wavelength of 595 nm. The value of A=0.2 measured from a […] portion of the cell suspension in a 96-well plate, with a correction for the medium absorption applied, was set to correspond to 4×10^8 cells/mL for both strains used. Taking into account the cell concentration measurements, the suspension was diluted with the MH medium to a concentration of from 5×10^4 to 1×10^5 cells/mL and transferred to a sterile 96-well plate in an amount of 100 μL, per well. Then, the cells were added with tested compounds and twofold serial dilutions of these compounds in plate's wells were made.
(§7) The controls used were: 100 μL of an additive-free bacterial culture (four wells); a bacterial culture added with 1% DMSO or water in the same volume as in the wells with the maximal concentration of the tested compounds (four wells); and 100 μL of the sterile MH medium without bacteria and without tested compounds for control of occasional contamination in the plate (four wells).

[2] = test system: Enterococcus faecalis BKM B-871; test: as above; format: cell-based; details: for MIC: 20 h, MH medium
Method: as §1, §2, §3, §4, §5, §6, §7

[3] = test system: Staphylococcus aureus 209P; test: as above; format: cell-based; details: for MIC: 20 h, MH medium
Method: as §1, §2, §3, §4, §5, §6, §7

[4] = test system: Micrococcus luteus BKM Ac-2230; test: as above; format: cell-based; details: for MIC: 20 h, MH medium
Method: as §1, §2, §3, §4, §5, §6, §7

[5] = test system: Cryptococcus neoformans No. 3465; test: Antifungal activity, culture growth with pH indicator; format: cell-based; parameters: key: (−) No growth; the indicator is blue; (±) Weak growth; the indicator is yellow, but the precipitate of grown cells looks as a diffuse spot; (+) Strong growth; the indicator is yellow, and the cell precipitate looks as a compact spot
Method: The subjects of action were Cryptococcus neoformans No. 3465 museum strain cells and Candida albicans No. 927 museum strain cells grown for one day on a glucose-peptone-yeast medium at 32° C. The reference compounds were the following antimycotics: pimafucin, amphotericin, and fluconazole.
Experiments were carried out on round-bottomed 96-well plates (Lenmedpolimer) in two replicas. To the first column (0), added was 10 μL of the stock solution of a water-soluble agent with concentrations of 10^−2 to 10^−3 mol/L; to the second column, added was also the same 10 μL plus 10 μL of the solvent corresponding to the given compound, suspended, 10 μL was transferred to the next well, and so on to the 8th well of the row. Stock solutions of water-insoluble compounds of general formula (I) (compounds V, VIII, XII, XIII, XIV, and hemin) were prepared in DMSO and were diluted with DMSO and the medium. DMSO concentrations in the reaction mixture in a well were ≦5%.
Then, to every well added was 190 μL of a Cr. neoformans cell culture suspension in a synthetic nutritional medium (so that the final cell concentration was approximately 10^3 CFU/mL), this medium containing Bromocresol Blue as a pH-indicator (pH: 5.5; indicator color: blue). As pH reduced to 4.5, the indicator in the culture changed its color to yellow, thereby indicating fungal cell growth. The synthetic medium comprised the following components: salts, amino acids, microelements, vitamins, an antibiotic, and glucose (30 components altogether) [Yarrow, D., “Methods for the Isolation, Maintenance and Identification of Yeasts,” in: The Yeasts. A Taxonomic Study, Ed. by Kurtsman, C. P, and Fell, M., Elsevier, 1998, pp. 77-100]. After being inoculated with a Cr. neoformans cell suspension, the plate was incubated at 32° C. for 1 h with stirring, then transferred to a stationary thermostat and incubated for two and five days at 27° C. After being inoculated with a C. albicans cell suspension, the plates were incubated for 1 h at 32° C. with stirring, then transferred to a stationary thermostat and incubated for one and four days at 27° C.

[6] = Solubility of tested agents (water / DMSO); details: water or DMSO
[7] = dilution : 16 of 5.00 × 10^−5 M
[8] = dilution : 32 of 5.00 × 10^−5 M
[9] = dilution : 64 of 5.00 × 10^−5 M
[10] = dilution : 128 of 5.00 × 10^−5 M

SMILES | MBC [1] | MBC [2] | MIC [2] [µM] | MBC [3] | MBC [4] [µM] | MIC [4] [µM] | Test culture growth at various dilutions of the agent on day 2 ([5]; dilution 0: 5.00 × 10^−5 M) | Test culture growth at various dilutions of the agent on day 2 ([5]; dilution : 2 of 5.00 × 10^−5 M) | Test culture growth at various dilutions of the agent on day 2 ([5]; dilution : 4 of 5.00 × 10^−5 M) | Test culture growth at various dilutions of the agent on day 2 ([5]; dilution : 8 of 5.00 × 10^−5 M) | Test culture growth at various dilutions of the agent on day 2 [5, 7] | Test culture growth at various dilutions of the agent on day 2 [5, 8] | Test culture growth at various dilutions of the agent on day 2 [5, 9] | Test culture growth at various dilutions of the agent on day 2 [5, 10] | solubility (in words) [6] | MIC [1] [µM] | MIC [3] [µM]
C=CC1=C(C)c2cc3[n-]c(cc4nc(cc5[n-]c(cc1n2)c(C)c5CCC(=O)N[C@@H](CCC(=O)N[C@@H](CCCNC(=N)N)C(=O)OC)C(=O)N[C@@H](CCCNC(=N)N)C(=O)OC)C(CCC(=O)N[C@@H](CCC(=O)N[C@@H](CCCNC(=N)N)C(=O)OC)C(=O)N[C@@H](CCCNC(=N)N)C(=O)OC)=C4C)c(C)c3C=C.[Cl-].[Fe+3] [Compound XVIII, 6,7-bis[bis(N^α-L-Arginyl Methyl Ester)-L-Glutamyl]-Protohemin IX] | Not reached | >50^3 μM | 12.5 | >50^2 μM | 12.5 | 3.1 | − | − | − | − | + | + | + | + | water-soluble |  | 
C=CC1=C(C)c2cc3[n-]c(cc4[n-]c(cc5nc(cc1n2)C(C)=C5C=C)c(C)c4CCC(=O)O)c(CCC(=O)O)c3C.[Cl-].[Fe+3] [Hem, hemin] | 50 ± 13 µM | >1000 µM | 1000 | 200 µM | 25 | 12.5 | ± | ± | ± | ± | ± | ± | + | + | water-insoluble | 13 ± 4 | 100
C=CC1=C(C)c2cc3[n-]c(cc4nc(cc5[n-]c(cc1n2)c(C)c5CCC(=O)N[C@@H](CO)C(=O)OC)C(CCC(=O)N[C@@H](CO)C(=O)OC)=C4C)c(C)c3C=C.[Cl-].[Fe+3] [VIII] | 9 ± 4 µM | 25 µM | 12.5 | 200 µM | 12.5 |  | ± | ± | ± | + | + | + | + | + | DMSO-soluble; also recorded: water-insoluble | 6.3 ± 1.6 | 
C=CC1=C(C)c2cc3[n-]c(cc4nc(cc5[n-]c(cc1n2)c(C)c5CCC(=O)NCCO)C(CCC(=O)NCCO)=C4C)c(C)c3C=C.[Cl-].[Fe+3] [Compound XIV, Protohemin IX 6,7-bis-N-(2-Hydroxyethyl)amide] | 6.3 ± 1.6 µM | 100 µM | 25 | 3.2 µM | 1.6 | 0.8 |  |  |  |  |  |  |  |  | DMSO-soluble; also recorded: water-insoluble | 1.6 ± 0.4 | 1.6
C=CC1=C(C)c2cc3[n-]c(cc4nc(cc5[n-]c(cc1n2)c(C)c5CCC(=O)N[C@@H](CCCNC(=N)N)C(=O)OC)C(CCC(=O)N[C@@H](CCCNC(=N)N)C(=O)OC)=C4C)c(C)c3C=C.[Cl-].[Fe+3] [VII] | 3.1 ± 0.8 µM | 400 µM | 50 | 200 µM | 6.3 |  | − | ± | + | + | + | + | + | + | water-soluble |  | 
